Test results: patent US11096931B2, “Amide derivatives useful in the treatment of HBV infection or HBV-induced diseases” (Janssen Sciences Ireland Unlimited Company, priority 2019, dated 2021)
Converted amounts (≈) assume the structure as drawn. “And” between values parts separate entries of the source, which are not always exact repeats. Equal entries are not always repeated. Where two headings read alike, the source gives them in different places.

Assays:
HT EQ solubility assay = assay type: physicochemical; settings: read-out: HtEq Sol; for solubility thermodynamic at 24 h: stirred 24 h
Experimental: The assay was run in triplicate and was semi-automated using the Tecan Fluent for all liquid handling. 20 μL of 10 mM stock solution was dispensed in a 500 μL 96 well plate. DMSO was evaporated (Genevac). A stir bar and 400 μL of buffer/biorelevant media was added. The solution was stirred for 72 h (pH2 and pH7) or 24 h (FaSSIF and FeSSIF). The solution was filtered and the filtrate was quantified by UPLC/UV using a three-points calibration curve.

HBV = experiment: anti HBV activity, HepG2.117 cell line, intracellular HBV DNA by real-time PCR; assay type: cell-based, hepatitis B virus; settings: Hepatitis B virus, 72 h; mean value; HepG2.117 cells, 3 days of treatment, intracellular HBV DNA; read-out: HBV-AVE-HepG2.117_intra_EC50
Experimental: The anti HBV activity was measured using the HepG2.117 cell line, a stable, inducible HBV producing cell line, which replicates HBV in the absence of doxicycline (Tet-off system). The HepG2 cell line is available from ATCC® under number HB-8065. Transfection of the HepG2 cell line can be as described in Sun and Nassal 2006 Journal of Hepatology 45 (2006) 636-645 “Stable HepG2-and Huh7-based human hepatoma cell lines for efficient regulated expression of infectious hepatitis B virus”.
For the antiviral assay, HBV replication was induced, followed by a treatment with serially diluted compound in 96-well plates. After 3 days of treatment, the antiviral activity was determined by quantification of intracellular HBV DNA using real-time PCR and an HBV specific primer set and probe.

[1] = Cytotoxicity, ATPlite cell viability; assay type: cell-based; settings: human, mean value, HepG2 or HepG2.117 cells
Experimental: Cytotoxicity of the compounds was tested using HepG2 or HepG2.117 cells, incubated for 4 days in the presence of compounds. The viability of the cells was assessed using the Perkin Elmer ATPlite Luminescence Assay System.”

[2] = Pharmacokinetics assessment in mice; assay type: in vivo, C57BL mice; settings: mouse; for clearance / AUC(0-t) / Cmax: male, C57BL, plasma; for clearance: IV (PEG400) 2.5 mg/kg
Experimental: The pharmacokinetic profile was evaluated in fed male C57BL mice (n=3/group). Mice were i.v. injected with test compound at 2.5 mg/kg, formulated as solution in PEG400/water (70/30), and blood samples were collected from the dorsal metatarsal vein at 0.05, 0.117, 0.333, 1, 2, 4, 7, and 24 hours into EDTA-containing microcentrifuge tubes. Test compound was administered p.o. at 10 mg/kg and 50 mg/kg, formulated as solution in PEG400, and blood samples were collected from the dorsal metatarsal vein at 0.5, 1, 2, 4, 7, 12 and 24 hours into EDTA-containing microcentrifuge tubes. The blood samples were immediately centrifuged at 4° C. and the plasma was stored at −80° C. Compound concentrations from the plasma samples were analyzed using LC-MS/MS (LCMS-8050 instrument). Individual plasma concentration-time profiles were subjected to a non-compartmental pharmacokinetic analysis (NCA) using Phoenix™ WinNonlin version 6.1. (Certara, N.J., USA).

[3] = Thermodynamic solubility assay; assay type: physicochemical; settings: organic solvent or mixture, thermodynamic from solid; thermodynamic solubility in PEG400
Experimental: To x mg of compound 500 μL of solvent was added (max. conc. y mg/mL). After 24 h/72 h shaking/stirring the solutions were filtered (0.45 μm membrane) and the pH was recorded. The filtrate was diluted to a maximum conc. of 100 μg/mL (CH3CN/0.1N HCl 1/1) and the samples were quantified by LC/UV. Calibration standards were 100 μg/mL, 10 μg/mL and 1 μg/mL.

[4] = buffer pH 2, aqueous buffer, thermodynamic from solid, pH = 2, stirred 72 h
[5] = buffer pH 7, aqueous buffer, thermodynamic from solid, pH = 7, stirred 72 h
[6] = thermodynamic from solid, Fessif
[7] = thermodynamic from solid, fassif

Row | SMILES | EC50 (HBV) [nM] | CC50 at 4 days [1] [nM] | other results
1 | Cc1c(C(=O)C(=O)NC2(c3cn[nH]n3)CC(F)(F)C2)cn(C)c1C(=O)Nc1ccc(F)c(C#N)c1 [Compound 12] | 10 | > 50000 | solubility thermodynamic at 24 h (HT EQ solubility assay; Fessif): 41.2 µM and 25.1 µM; solubility thermodynamic at 24 h (HT EQ solubility assay; fassif): 10.2 µM and 5.4 µM
2 | Cc1c(C(=O)C(=O)NC2(c3cn[nH]n3)CC(F)(F)C2)cn(C)c1C(=O)Nc1ccc(F)c(Cl)c1 [Compound 13] | 3 | 26800 | clearance [2]: 10.2 mL/min/kg; AUC(0-t) ([2]; PO (PEG400) 10 mg/kg): 12500 ng·h/mL; Cmax ([2]; PO (PEG400) 10 mg/kg): 2480 ng/mL; F ([2]; PO (PEG400) 10 mg/kg): 77.3 +/− 19.8%; F ([2]; PO (PEG400) 50 mg/kg): 121 +/− 50%; solubility [3]: > 36.4 mg/mL; solubility thermodynamic at 72 h (HT EQ solubility assay; [4]): 1.1 µM (≈ 0.544 µg/mL); solubility thermodynamic at 72 h (HT EQ solubility assay; [5]): < 0.6 µM; solubility thermodynamic at 24 h (HT EQ solubility assay; [6]): 150 µM (≈ 74.5 µg/mL); solubility thermodynamic at 24 h (HT EQ solubility assay; [7]): 39.8 µM (≈ 19.7 µg/mL)
3 | Cc1c(C(=O)C(=O)NC2(c3c[nH]nn3)CC(F)(F)C2)c(C)n(C)c1C(=O)Nc1ccc(F)c(C#N)c1 [Compound 28] | 8 | > 50000 | clearance [2]: 73.3 mL/min/kg; AUC(0-t) ([2]; PO (PEG400) 10 mg/kg): 153 ng·h/mL; Cmax ([2]; PO (PEG400) 10 mg/kg): 85 ng/mL; AUC(0-t) ([2]; PO (PEG400) 50 mg/kg): 1850 ng·h/mL; Cmax ([2]; PO (PEG400) 50 mg/kg): 1630 ng/mL; F ([2]; PO (PEG400) 10 mg/kg): 6.05 +/− 3.56%; F ([2]; PO (PEG400) 50 mg/kg): 14.6 +/− 12^ %; solubility [3]: > 33.9 mg/mL; solubility thermodynamic at 72 h (HT EQ solubility assay; [4]): < 5 µM; solubility thermodynamic at 72 h (HT EQ solubility assay; [5]): < 5 µM; solubility thermodynamic at 24 h (HT EQ solubility assay; [6]): 277 µM (≈ 138 µg/mL); solubility thermodynamic at 24 h (HT EQ solubility assay; [7]): 46.8 µM (≈ 23.4 µg/mL)
4 | Cn1cc(C(=O)C(=O)NC2(c3cn[nH]n3)CC(F)(F)C2)c(Br)c1C(=O)Nc1ccc(F)c(C#N)c1 [Compound 31] | 3 | > 50000 | 
5 | COc1c(C(=O)C(=O)NC2(c3cn[nH]n3)CC(F)(F)C2)cn(C)c1C(=O)Nc1ccc(F)c(C#N)c1 [Compound 32] | 27 | 31700 | 
6 | Cc1c(C(=O)C(=O)NC2(c3cn[nH]n3)CC(F)(F)C2)cn(C)c1C(=O)Nc1ccc(F)c(Br)c1 [Compound 34] | 4 | 26300 | 
7 | Cc1c(C(=O)C(=O)NC2(c3cn[nH]n3)CC(F)(F)C2)c(Cl)n(C)c1C(=O)Nc1ccc(F)c(Cl)c1 [Compound 35] | 4 | 5800 | 
8 | Cn1cc(C(=O)C(=O)NC2(c3ccccc3)CC(F)(F)C2)cc1C(=O)Nc1ccc(F)c(C#N)c1 [Compound 36] | 10 | 1100 | 
9 | Cn1cc(C(=O)C(=O)NC2(c3cn[nH]n3)CC(F)(F)C2)c(C2CC2)c1C(=O)Nc1ccc(F)c(C#N)c1 [Compound 38] | 24 | > 50000 | 
10 | Cc1c(C(=O)C(=O)NC2(c3cn[nH]n3)CC(F)(F)C2)c(Cl)n(C)c1C(=O)Nc1ccc(F)c(Br)c1 [Compound 40] | 4 | 6600 | 
11 | Cc1c(C(=O)C(=O)NC2(c3cn[nH]n3)CC(F)(F)C2)c(Br)n(C)c1C(=O)Nc1ccc(F)c(Cl)c1 [Compound 41] | 2 | 7200 | 
12 | Cc1c(C(=O)C(=O)NC2(c3cn[nH]n3)CC(F)(F)C2)c(F)c(C(=O)Nc2ccc(F)c(C#N)c2)n1C [Compound 42] | 2 | > 50000 | 
13 | Cn1cc(C(=O)C(=O)NC2(c3ncc[nH]3)CC(F)(F)C2)cc1C(=O)Nc1ccc(F)c(C#N)c1 [Compound 43] | 315 | 6600 | 
14 | Cc1c(C(=O)C(=O)NC(CC(F)(F)F)c2cn[nH]n2)c(C)n(C)c1C(=O)Nc1ccc(F)c(C#N)c1 (centres unmarked) [Compound 44RS] | 4 | > 50000 | 
15 | Cc1c(C(=O)C(=O)NC2(c3cn[nH]n3)CC(F)(F)C2)cc(C(=O)Nc2ccc(F)c(C#N)c2)n1C [Compound 45] | 9 | > 50000 | 
16 | Cc1c(C(=O)C(=O)NC2(c3cn[nH]n3)CC(F)(F)C2)cn(C)c1C(=O)Nc1ccc(F)c(C#N)c1F [Compound 46] | 11 | > 50000 | 
17 | Cn1c(C#N)c(C(=O)C(=O)NC2(c3cn[nH]n3)CC(F)(F)C2)c(F)c1C(=O)Nc1ccc(F)c(C#N)c1 [Compound 50] | 1280 | > 50000 | 
18 | Cc1c(C(=O)C(=O)NC(C)(c2cn[nH]n2)C(F)(F)F)cn(C)c1C(=O)Nc1ccc(F)c(C#N)c1 (centres unmarked) [Compound 51] | 13 | > 50000 | 
19 | Cn1c(C(=O)Nc2ccc(F)c(C#N)c2)c(F)c(C(=O)C(=O)NC2(c3cn[nH]n3)CC(F)(F)C2)c1C1CC1 [Compound 52] | 9 | > 40600 | 
20 | Cc1c(C(=O)C(=O)NC2(c3cn[nH]n3)CC(F)(F)C2)cn(C)c1C(=O)Nc1ccnc(C(F)F)c1 [Compound 53] | 33 | > 50000 | 
21 | Cc1c(C(=O)C(=O)NC2(c3cn[nH]n3)CC(F)(F)C2)c(C2CC2)n(C)c1C(=O)Nc1ccc(F)c(Cl)c1 [Compound 54] | 3 | 26300 | 
22 | Cc1c(C(=O)C(=O)NC2(c3cn[nH]n3)CC(F)(F)C2)c(C#N)n(C)c1C(=O)Nc1ccc(F)c(Cl)c1 [Compound 55] | 809 | > 50000 | 
23 | Cn1cc(C(=O)C(=O)NC2(c3c[nH]cn3)CC(F)(F)C2)cc1C(=O)Nc1ccc(F)c(C#N)c1 [Compound 56] | 44 | 20000 | 
24 | Cc1c(C(=O)C(=O)N[C@]2(c3cn[nH]n3)C[C@H](F)C2)cn(C)c1C(=O)Nc1ccc(F)c(C#N)c1 [Compound 57cis] | 12 | > 50000 | 
25 | Cc1c(C(=O)C(=O)N[C@]2(c3cn[nH]n3)C[C@@H](F)C2)cn(C)c1C(=O)Nc1ccc(F)c(C#N)c1 [Compound 57trans] | 7 | > 50000 | 
26 | Cc1c(C(=O)C(=O)N[C@]2(c3cn[nH]n3)C[C@H](O)C2)cn(C)c1C(=O)Nc1ccc(F)c(C#N)c1 [Compound 58cis] | 90 | > 50000 | 
27 | Cc1c(C(=O)C(=O)N[C@]2(c3cn[nH]n3)C[C@@H](O)C2)cn(C)c1C(=O)Nc1ccc(F)c(C#N)c1 [Compound 58trans] | 88 | > 50000 | 
28 | Cc1cc(NC(=O)c2cc(C(=O)C(=O)NCc3cn[nH]n3)cn2C)ccc1F [Ref. 59, reference compound] | 583 | > 50000 | 
